Measurements from patent publication US12527838B2, “Combination therapies comprising an agent that blocks the interaction between CD47 and SIRPα for treating gastric or gastroesphageal junction cancel” (ALX Oncology Inc., priority 2019, dated 2026).

What was measured:
[1] = molecular target: T1, BFL-1 (BCL2A1/A1) (Homo sapiens, UniProt Q16548); conditions: selectivity profile; cited from earlier work
T1 sequence (Q16548 1-175): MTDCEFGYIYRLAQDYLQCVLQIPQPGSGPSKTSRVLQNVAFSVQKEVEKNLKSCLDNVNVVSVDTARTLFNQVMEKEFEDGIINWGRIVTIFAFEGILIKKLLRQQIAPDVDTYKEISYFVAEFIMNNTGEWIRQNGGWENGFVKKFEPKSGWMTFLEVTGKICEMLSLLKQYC

[2] = molecular target: BCL-XL (Homo sapiens, UniProt Q07817); conditions: selectivity profile; cited from earlier work
BCL-XL, sequence (Q07817 whole entry, species assumed): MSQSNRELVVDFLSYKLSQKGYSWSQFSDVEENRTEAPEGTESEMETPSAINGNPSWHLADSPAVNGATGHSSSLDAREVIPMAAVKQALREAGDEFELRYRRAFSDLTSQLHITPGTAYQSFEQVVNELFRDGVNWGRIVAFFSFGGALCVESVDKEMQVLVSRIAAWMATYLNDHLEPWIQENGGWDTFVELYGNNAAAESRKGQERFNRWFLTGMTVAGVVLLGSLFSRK

[3] = tested on: BCL-XL-dependent cells, such as platelets; conditions: cited from earlier work
[4] = molecular target: MCL-1 (Homo sapiens, UniProt Q07820); conditions: selectivity profile; cited from earlier work
MCL-1, sequence (Q07820 whole entry, species assumed): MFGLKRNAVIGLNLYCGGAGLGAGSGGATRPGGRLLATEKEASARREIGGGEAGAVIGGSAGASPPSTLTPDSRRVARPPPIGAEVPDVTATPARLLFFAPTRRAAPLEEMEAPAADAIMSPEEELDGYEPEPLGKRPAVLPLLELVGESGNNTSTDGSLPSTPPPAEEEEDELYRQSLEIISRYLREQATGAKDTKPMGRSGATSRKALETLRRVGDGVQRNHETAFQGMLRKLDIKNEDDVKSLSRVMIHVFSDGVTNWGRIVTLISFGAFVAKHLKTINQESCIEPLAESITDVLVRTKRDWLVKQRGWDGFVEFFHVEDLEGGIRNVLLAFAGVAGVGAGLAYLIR

[5] = cited from earlier work
[6] = tested on: CT26 tumor cells; test: CT26 syngeneic mouse colon carcinoma model; format: in vivo, BALB/c female mice
Protocol: The CT26 cells (see Wang et al. (1995) J. Immunol. 154:4685-4692) were injected into the right flank of BALB/c female mice at a concentration of 5×10^5 cells per mouse in RPMI 1640. Tumors were monitored until the average size of all tumors reached 65-70 mm^3. […] The two 30 mpk doses were given 10 days apart. […] Mice receiving both cisplatin and Drug were administered with cisplatin (IP) according to one of the regimens described above, and with Drug A as described above. In mice receiving combination treatment, Drug A was administered one day after cisplatin. Tumors were measured in two dimensions with calipers, and tumor volume was calculated as: length×width×width×0.5, where length was the larger of the two measurements.

[7] = tested on: RS4;11 leukemia cells; test: RS4;11 xenograft model (acute leukemia); format: in vivo, NOD-SCID female mice
Protocol: The RS4;11 cells (described in Stong et al. (1985) Blood. 65(1): 21-31) was injected into the right flank of NOD-SCID female mice at a concentration of 5×10^6 cells per mouse using a 1:1 matrigel (Corning) and RPMI 1640 ratio. Tumors were monitored until the average size of all tumors reached 190 mm^3. […] The formulation for Venetoclax was a ratio of DMSO:ethanol:Cremophor EL:dextrose 5% in water (D5W) was […], by volume. Venetoclax-treated mice were dosed with 250 μg of Venetoclax by oral gavage 2 times total, 3 days apart. Drug A-treated mice were dosed IP at 10 mg/kg, 4 times total, 3-4 days apart. […] Tumors were measured in two dimensions with calipers, and tumor volume was calculated as: length×width×width×0.5, where length was the larger of the two measurements.

[8] = tested on: HL60 cells; test: In vitro phagocytosis of HL60 cells by human monocyte-derived macrophages; format: cell-based; conditions: 20 nM Drug A, 125 nM venetoclax; FIG. 5A
Protocol: CD14^+ monocytes were purified by negative selection using the Classical Monocytes Isolation Kit, human (Miltenyi Biotec) and LS columns (Miltenyi Biotec) according to the manufacturer's protocol. CD14^+ monocytes were seeded into 150 mm tissue culture dishes (Corning) at 6 million cells per dish in 25 mL medium comprised of RPMI complete media, supplemented with 50 ng/mL M-CSF (Miltenyi Biotec), 10% human FBS serum (Thermo Fisher Scientific), 1% penicillin/streptomycin, and 1% GlutaMAX. Cells were cultured for seven to eleven days.
HL60 and OCI-AML3 cells were washed once in PBS and labeled with the Celltrace CFSE Cell Proliferation kit (Thermo Fisher Scientific) in suspension with 300 nM CFSE (carboxyfluorescein succinimidyl ester) according to the manufacturer's instructions and resuspended in RPMI complete media. […] Prior to incubation with macrophages, cells were resuspended in RPMI. Macrophages were detached from culture plates by washing once with PBS and incubation in TrypLE Select for 20 minutes at 37° C. Cells were removed with a cell scraper (Corning), washed in PBS, and resuspended in RPMI. […]
Briefly HL60 cells and OCI-AML3 cells (i.e., “target cells”) were labeled with CFSE (carboxyfluorescein succinimidyl ester) and treated with venetoclax for 48 hours. […] Macrophage cells were pelleted, stained, and analyzed via flow cytometry. […]

## O=C(c1cc(-c2cc3c(cc2C(=O)N2Cc4ccccc4C[C@H]2CN2CCOCC2)OCO3)n2c1CCCC2)N(c1ccccc1)c1ccc(O)cc1 [Drug S55746, (S)—N-(4-hydroxyphenyl)-3-(6-(3-(morpholinomethyl)-1,2,3,4-tetrahydroisoquinoline-2-carbonyl)benzo[d][1,3]dioxol-5-yl)-N-phenyl-5,6,7,8-tetrahydroindolizine-1-carboxamide]
[1]
  binding to BFL-1 (BCL2A1/A1): no significant binding
[2]
  affinity for BCL-XL: poor affinity
[3]
  cytotoxic activity: no cytotoxic activity
[4]
  binding to MCL-1: no significant binding

## [NH2][Pt]1([NH2])[O]C(=O)C2(CCC2)C(=O)[O]1 [Carboplatin, platinum, diammine [1,1cyclobutane-dicarboxylato(2-)-0,0]-, (SP-4-2)]
[5]
  aqueous solubility: water-soluble

## N.N.[Cl][Pt][Cl] [cisplatin, dichloroplatinum diammoniate]
[6]; cisplatin two 5 mpk doses regimen
  mice with a tumor volume<500 mm^3: 10%
[6]; day 20, cisplatin two 5 mpk doses 10 days apart, Drug A two 30 mpk doses, FIG. 2A
  tumor growth: inhibited somewhat

## CC1(C)CCC(CN2CCN(c3ccc(C(=O)NS(=O)(=O)c4ccc(NCC5CCOCC5)c([N+](=O)[O-])c4)c(Oc4cnc5[nH]ccc5c4)c3)CC2)=C(c2ccc(Cl)cc2)C1 [venetoclax, 4-(4-{[2-(4-chlorophenyl)-4,4dimethylcyclohex-1-en-1-yl]methyl}piperazin-1-yl)-N-({3-nitro-4-[(tetrahydro-2H-pyran-4ylmethyl)amino]phenyl}sulfonyl)-2-(1H-pyrrolo[2,3-b]pyridin-5-yloxy)benzamide]
[5]
  aqueous solubility: very low aqueous solubility
[7]; Day 65, re-treated mice (n=5/group)
  average tumor volume: about 1685 mm^3
[7]; day 41
  tumor-free (TF) mice: 1 out of 10
[7]; venetoclax 250 μg oral gavage 2 times, Drug A 10 mg/kg IP 4 times, FIG. 1A
  tumor growth (tumor volume): inhibited tumor growth
[8]
  macrophage-mediated phagocytosis of HL60 cells: stimulated macrophage-mediated phagocytosis of HL60 cells
